According to article PMC11053168, “Agonist-selective activation of individual G-proteins by muscarinic receptors” (Scientific Reports, 2024):

Experiments:
M1 receptor [1] = biological target: T1, M1 receptor (Homo sapiens, UniProt P11229); assay: BRET real-time monitoring of Gq/11 activation via M1 in HEK293T/17 cells; assay type: cell-based; design: expressed in transfected cells; host or cells: HEK293T/17 cells, transient transfection; conditions: for Activation of Gαq/11 types: saturating concentration (100 μM; 1 mM for JB-12-2, JB-13-1); for Activation magnitude at G11, % of CBC / Activation magnitude at G15, % of CBC / Activation magnitude at Gq, % of CBC / Activation magnitude at Gα14, % of CBC: 100 μM
T1 sequence (P11229 1-460): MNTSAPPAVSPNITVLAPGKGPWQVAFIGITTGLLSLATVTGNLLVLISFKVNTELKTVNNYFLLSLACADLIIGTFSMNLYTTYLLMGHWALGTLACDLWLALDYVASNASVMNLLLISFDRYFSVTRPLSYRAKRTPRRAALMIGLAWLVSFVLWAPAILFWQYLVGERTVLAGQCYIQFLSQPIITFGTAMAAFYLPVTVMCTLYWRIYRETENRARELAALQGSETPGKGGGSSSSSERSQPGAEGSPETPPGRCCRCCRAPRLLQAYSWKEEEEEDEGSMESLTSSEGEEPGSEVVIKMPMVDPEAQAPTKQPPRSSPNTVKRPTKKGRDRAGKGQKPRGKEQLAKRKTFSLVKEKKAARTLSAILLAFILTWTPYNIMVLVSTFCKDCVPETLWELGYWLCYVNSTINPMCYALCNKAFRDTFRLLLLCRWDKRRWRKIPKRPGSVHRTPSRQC
Procedure: HE/K293T17 cells were obtained from The Global Bioresource Center ATCC (Manassas, VA, USA). Cells were grown in 100 mm petri dishes in Dulbecco’s modified Eagle’s medium (DMEM) supplemented with 10% fetal bovine serum (FBS), MEM non-essential amino acids, 1 mM sodium pyruvate, and antibiotics (100 units/ml penicillin and 100 μg/ml streptomycin) at 37 °C in a humidified incubator containing 5% CO2[41]. Transfection was performed according to Masuho et al.[41]. […] Gα14 subunit was co-transfected with Ric-8A chaperone (0.21 μg). Cells were cotransfected with a pcDNA3.1 construct encoding the catalytic subunit of pertussis toxin (PTX-S1) (0.21 μg) and constructs encoding Gα15, Gα14, Gα11, Gαq to ensure that the small BRET signals were not contaminated by the possible recruitment of endogenous Gαi/o proteins. The empty vector pcDNA3.1 was used to normalize the amount of DNA in each transfection.
To examine the activation of G-protein signalling in live cells, agonist-dependent cellular measurements of BRET between Venus-Gβ1γ2 and masGRK3ct-Nluc were performed as described by Masuho et al.[41]. […] Cells were harvested by centrifugation at 500×g for 5 min and were resuspended in BRET buffer. About 50,000 to 100,000 cells per well were distributed in 96-well flat-bottomed white microplates (Greiner Bio-One) in a volume of 25 µl. […] BRET measurements were made with a microplate reader (POLARstar Omega, BMG Labtech) equipped with two emission photomultiplier tubes, which enabled the detection of two emissions simultaneously with the highest possible resolution of 20 ms per data point. All measurements were performed at room temperature. […] The average baseline value (basal BRET ratio) recorded before stimulation of cells with an agonist was subtracted from the experimental BRET signal values to obtain the ΔBRET ratio.

[2] = tested on: individual subtypes of muscarinic receptors (M1–M5); assay: [3H]NMS competition binding, summary over subtypes; design: species or system human; conditions: summary of Table 1 over subtypes
Procedure: CHO cells stably transfected with the genes of individual subtypes of human muscarinic receptors (M1–M5, wild types) were purchased from Missouri S&T cDNA resource center (Rolla, MO, USA) (https://www.cdna.org/home.php?cat=177). Cells were cultured as described previously by Randakova et al.[33]. Cells were grown to confluence in 75 cm^2 flasks in Dulbecco’s modified Eagle’s medium DMEM (Thermo Fisher Scientific; LOT: 2556745) supplemented with 10% fetal bovine serum and geneticin in concentration 50 µg/ml at 37 °C in a humidified incubator containing 5% CO2. The medium was supplemented with 5 mM butyrate for the last 24 h of culture to increase receptor expression. Cells were washed with (phosphate-buffered saline (PBS), mechanically harvested by scraper and centrifugated 1000 × g for 5 min. Cell pellets were kept at − 80 °C.
Membranes were prepared as described previously by Randakova et al.[33]. […]
Non-specific binding was determined in the presence of 10 μM unlabelled atropine. […] The filtration plates were counted in the Microbeta scintillation counter (PerkinElmer). […] The inhibition constant KI was calculated according to Eq. (2). […]

[3] = biological target: individual subtypes of muscarinic receptors (M1–M5); design: method as in PMID 31910288; conditions: summary of Table 1 over subtypes; read-out: Affinity; cited from earlier work
M3 receptor = M3 receptor (Homo sapiens, UniProt P20309); design: expressed in transfected cells; method as in PMID 31910288; conditions: CHO expressing M3; cited from earlier work
M3 receptor, sequence (P20309 whole entry): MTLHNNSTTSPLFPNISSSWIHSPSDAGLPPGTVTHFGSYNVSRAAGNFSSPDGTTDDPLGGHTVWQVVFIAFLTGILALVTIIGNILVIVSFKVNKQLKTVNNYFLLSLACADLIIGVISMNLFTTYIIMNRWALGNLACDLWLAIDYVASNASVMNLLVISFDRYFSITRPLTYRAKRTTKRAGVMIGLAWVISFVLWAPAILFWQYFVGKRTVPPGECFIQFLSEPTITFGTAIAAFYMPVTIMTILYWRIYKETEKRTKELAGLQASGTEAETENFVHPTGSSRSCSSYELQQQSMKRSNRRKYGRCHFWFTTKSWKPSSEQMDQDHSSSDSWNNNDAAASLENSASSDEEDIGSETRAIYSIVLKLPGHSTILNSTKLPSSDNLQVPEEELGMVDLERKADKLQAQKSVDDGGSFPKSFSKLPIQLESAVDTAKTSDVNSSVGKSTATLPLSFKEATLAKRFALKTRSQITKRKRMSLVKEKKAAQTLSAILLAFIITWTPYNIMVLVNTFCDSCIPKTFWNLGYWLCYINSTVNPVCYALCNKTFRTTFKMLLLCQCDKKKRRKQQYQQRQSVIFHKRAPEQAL

M1 receptor [4] = biological target: T1, M1 receptor; design: expressed in transfected cells; method as in PMID 31910288; conditions: CHO expressing M1; cited from earlier work

Row | SMILES | Activation of Gαq/11 types (M1 receptor [1]) | Activation magnitude at G11, % of CBC (M1 receptor [1]) | Activation magnitude at G15, % of CBC (M1 receptor [1]) | Activation magnitude at Gq, % of CBC (M1 receptor [1]) | Activation magnitude at Gα14, % of CBC (M1 receptor [1]) | also measured
1 | C[N+]1(Cc2cccs2)CCOCC1 [JB-12-2] | activated all Gαq/11 types |  |  |  |  | 
2 | C[N+]1(Cc2ccc(Cl)s2)CC=CCC1 (stereo not drawn) [PN-152, 1-[(5-chlorothiophen-2-yl)methyl]-1-methyl-1,2,3,6-tetrahydropyridin-1-ium] |  | approx. 30% | approx. 30% | approx. 30% | did not activate | Affinity, times higher than JR-6 [2]: three to ten
3 | c1csc(C[N+]23CCC(CC2)CC3)c1 [JB-8A] | did not activate any Gαq/11 type |  |  |  |  | 
4 | C[N+]1(Cc2cccs2)CC=CCC1 (stereo not drawn) [JR-6, 1-methyl-1-[(thiophen-2-yl)methyl]-1,2,3,6-tetra hydropyridin-1-ium] |  | approximately 50% | approximately 50% | approximately 50% | approx. 10% | Ki [3]: ~10 µM; IP production (M3 receptor): marginal response; IP production (M1 receptor [4]): weak IP production
5 | COC(=O)C1=CCCN(Cc2cccs2)C1 [JB-13-1] | did not activate any Gαq/11 type |  |  |  |  | 
